Measurements from US20250368623A1, “PYRIDAZINONE-DERIVED COMPOUNDS FOR THE MODULATION OF MYC AND FOR MEDICAL USES” (GENETIC INTELLIGENCE, INC, priority 2022, published 2025).

Tests used:
[1] = tested on: MYC RNA; test: RT-qPCR of MYC RNA in human cancer cell lines; type: cell-based; conditions: 24 h, about 1 μM, 1-day incubation, e.g., A549, HepG2, beta-actin normalized, vs DMSO, read-out: % reduction of MYC RNA
Experimental: The level of reduction of MYC RNA following treatment with test compounds is assessed using RT-qPCR according to the following protocol. The human cancer cell lines (e.g., A549, HepG2) are seeded at 20,000 cells per well in a 96-well plate. After 1 day, the cells are treated with test compounds at a final concentration of about 1 μM. After a 1-day incubation period, the supernatant is removed from the wells and lysis solution from the Cells-to-CT 1-Step Power SYBR Green Kit (Invitrogen A25599) is added to create cell lysates, according to the kit manufacturer's protocol. The kit manufacturer's protocol is then followed to perform RT-qPCR for each sample using a pair of MYC-specific primers (e.g., SEQ ID NO: 4 and SEQ ID NO: 5) to detect MYC RNA, as well as a pair of beta-actin-specific primers (e.g., SEQ ID NO: 6 and SEQ ID NO: 7) to detect beta-actin RNA, which serves as a loading control. The relative expression levels of MYC and beta-actin RNAs are calculated using a standard curve generated from a dilution series of untreated cell lysates. The normalized level of MYC RNA following treatment with a test compound is calculated by dividing the relative expression level of MYC in the sample by the relative expression level of beta actin in the same sample. The value so obtained is presented as a percentage of that of the no-compound, solvent only (DMSO)-treated sample. A lower percentage of MYC RNA in a sample with respect to the DMSO-treated sample indicates greater percentage reduction in MYC RNA levels due to the test compound, and vice versa.

[2] = tested on: MYC protein; test: MYC HTRF assay, MYC protein level in human cell lines; type: cell-based; conditions: about 20 μM, 2-day incubation, human cell lines (e.g., A549, HepG2), vs DMSO-treated sample
Experimental: The MYC homogenous time-resolved fluorescence (HTRF) assay kit (CisBio/Perkin Elmer 63ADK053PEG) is used to quantify the level of MYC protein in human cell lines (e.g., A549, HepG2) following treatment with test compounds, according to the following protocol. Human cells cultured in DMEM-10% FBS media are seeded at 20,000 cells per well in a 96-well plate. After 1 day, the cells are treated with test compounds at a final concentration of about 20 μM. After a 2-day incubation period, the supernatant is removed from the wells and the HTRF assay is carried out according to the kit manufacturer's protocol. In brief, lysis buffer #4 is added to create cell lysates. 10 μL of cell lysate is added to 10 μL of premixed antibody solution (anti-human My c-Eu cryptate antibody and anti-human Myc-d2 antibody) prepared in detection buffer #3 in a 384-well low-volume white-walled plated. After 3 h of incubation, fluorescence readings are taken at the emission wavelengths of donor and acceptor fluorophores (620 nm and 665 nm respectively) using a HTRF-compatible plate reader. The ratio of acceptor and donor fluorescence emission signals for each sample is calculated by dividing the fluorescence signal at 665 nm by the signal at 620 nm, and further normalized by dividing with the concentration of total protein in that sample as determined by the BCA assay. The values so obtained are presented as a percentage of that of the no-compound, solvent only (DMSO)-treated samples. A lower percentage of MYC protein in a sample with respect to the DMSO-treated sample indicates greater percentage reduction in MYC protein level due to the test compound, and vice versa.

[3] = tested on: A549; test: CCK-8 cell viability assay, A549; type: cell-based; conditions: Homo sapiens; CCK-8, A549, 2-day or 3-day incubation, cytotoxic effect
Experimental: The effect of test compounds on cell viability is determined using the CCK-8 assay kit (Dojindo CK04-1000) according to the following protocol. The human cancer cell lines (e.g., A549, HepG2, JeKo-1, MDA-MB-231, etc.) and non-cancer human cell lines (e.g., HEK-293, HaCaT, etc.), are seeded at 20,000 cells per well in a 96-well plate. After 1 day, the cells are treated with test compounds at various final concentrations (e.g., 10 nM, 31.6 nM, 100 nM, 316 nM, 1 μM, 3.16 μM, 10 μM, 20 μM, etc.). After a 2-day or 3-day incubation period, 10 μL of CCK-8 solution, which contains the WST-8 dye, is added to each well according to the kit manufacturer's protocol. After incubation for 1-4 hours, the absorbance at 450 nm is measured using a microplate reader. The absorbance at 450 nm measures the amount of WST-8 that is reduced to WST-8 formazan by cellular dehydrogenases, which is directly proportional to the number of living cells. The cytotoxic effect of test compounds at different concentrations is calculated by subtracting from 1 the ratio of absorbance of the compound-treated sample at 450 nm to that of the no-compound, solvent only (DMSO)-treated sample. […]

[4] = tested on: caspase 3/7 activation in HepG2; test: ApoTox-Glo Triplex assay, caspase 3/7 activation in HepG2; type: cell-based, human; conditions: vs DMSO
Experimental: The effects of test compounds on cell viability and apoptosis are determined using the ApoTox-Glo Triplex assay kit (Promega G6320) according to the following protocol. The human cancer cell line (e.g., HepG2) and a non-cancer human cell line (e.g., HEK-293), are seeded at 20,000 cells per well in a 96-well plate. After 1 day, the cells are treated with test compounds at various final concentrations (e.g., 10 nM, 31.6 nM, 100 nM, 316 nM, 1 μM, 3.16 μM, 10 μM, 20 μM, etc.). After a 2-day incubation period, the ApoTox-Glo Triplex assay is performed according to the kit manufacturer's protocol. In brief, 20 μL of viability/cytotoxicity reagent containing both GF-AFC substrate (cell-permeant substrate to measure live-cell protease activity) and bis-AAF-R110 substrate (cell-impermeant substrate to measure dead-cell protease activity) is added to each sample, and briefly mixed by orbital shaking (300-500 rpm for ˜30 seconds). After incubation for 30 minutes at 37° C., the fluorescence signal is measured at two wavelength sets (400Ex/505Em) and (485Ex/520Em) to assess live-cell protease activity and dead-cell protease activity respectively. Following the measurement of the live-cell and dead-cell protease activities, 25 μl of Caspase-Glo 3/7 Reagent containing a luminogenic DEVD-peptide substrate for caspase-3/7 and thermostable luciferase is added to each sample, and briefly mixed by orbital shaking (1300-1500 rpm for ˜30 seconds). After incubation for 30 minutes at room temperature, the luminescent signal is measured using a microplate reader. The luminescent signal directly correlates with caspase-3/7 activity, which is a key indicator of apoptosis.
The fold-change of caspase 3/7 activation is calculated by dividing the luminescence signal of the compound-treated sample with that of the no-compound, solvent only (DMSO)-treated sample.

[5] = tested on: HEK-293; test: CellTiter-Glo 2.0 cell viability assay, HEK-293; type: cell-based; conditions: Homo sapiens, HEK293, 48 h; CellTiter-Glo 2.0, HEK-293, 2-day incubation
Experimental: The effect of test compounds on cell viability is also determined using the CellTiter-Glo 2.0 assay kit (Promega G9241) according to the following protocol. The human cancer cell line (e.g., HepG2) and a non-cancer human cell line (e.g., HEK-293), are seeded at 20,000 cells per well in a 96-well plate. After 1 day, the cells are treated with test compounds at various concentrations (e.g., 10 nM, 31.6 nM, 100 nM, 316 nM, 1 μM, 3.16 μM, 10 μM, 20 μM, etc.). After a 2-day incubation period, the CellTiter-Glo 2.0 assay is performed according to the kit manufacturer's protocol. […] The contents are mixed for 2 minutes on an orbital shaker to induce cell lysis, and incubated for 10 minutes at room temperature, following which the luminescent signal is measured using a microplate reader. […] The cytotoxic effect of test compounds at different concentrations is calculated by subtracting from 1 the ratio of the luminescence signal of the compound-treated sample to that of the no-compound, solvent only (DMSO)-treated sample. […] The IC50 values for the cytotoxic effect of each test compound in HepG2 cells are determined by plotting a dose-response curve to calculate the concentration of test compound that produces half of the maximum cytotoxic effect. […]

[6] = tested on: MYC protein; test: Western blot of MYC protein in human cancer cell lines; type: cell-based; conditions: about 1 μM, 2-day incubation, e.g., A549 or HepG2, GAPDH loading control, vs DMSO
Experimental: The level of reduction of MYC protein following treatment with test compounds is also assessed by Western blot according to the following protocol. The human cancer cell lines (e.g., A549 or HepG2) are seeded at 20,000 cells per well in a 96-well plate. After 1 day, the cells are treated with test compounds at a final concentration of about 1 μM. After a 2-day incubation period, the supernatant is removed from the wells and RIPA buffer is added to create cell lysates. The lysates are analyzed by Western blot and probed with a MYC-specific antibody (e.g., Proteintech 10828-1-AP) together with a GAPDH-specific antibody (e.g., Proteintech 10494-1-AP) to serve as loading control. The intensities of Western blot bands are quantified by FIJI (Image J). The relative expression value of MYC following treatment with a test compound is calculated by dividing the intensity of the MYC band of the sample with the intensity of its own GAPDH band. The value so obtained is presented as a percentage of that of the no-compound, solvent only (DMSO)-treated sample. A lower percentage of MYC protein in a sample with respect to the DMSO-treated sample indicates greater percentage reduction in MYC protein level due to the test compound, and vice versa.

Cc1nc(C)c(-c2ccc(=O)n(CC3CCN(c4ncnc5ncccc45)CC3)n2)s1 [6-(2,4-dimethylthiazol-5-yl)-2-((1-(pyrido[2,3-d]pyrimidin-4-yl)piperidin-4-yl)methyl)pyridazin-3(2H)-one]
inhibition at 1 µM [1]: 45% | % reduction of MYC protein [2]: 72% | IC50 [3]: 1.3 µM | Fold-change of caspase 3/7 activation ([4]; HepG2, compound concentration 10 nM): 1.245 | Fold-change of caspase 3/7 activation ([4]; HepG2, compound concentration 31.6 nM): 1.204 | Fold-change of caspase 3/7 activation ([4]; HepG2, compound concentration 100 nM): 0.853 | Fold-change of caspase 3/7 activation ([4]; HepG2, compound concentration 316 nM): 0.586 | Fold-change of caspase 3/7 activation ([4]; HepG2, compound concentration 1000 nM): 0.420 | Fold-change of caspase 3/7 activation ([4]; HepG2, compound concentration 3160 nM): 0.371 | Fold-change of caspase 3/7 activation ([4]; HepG2, compound concentration 10000 nM): 0.308 | Fold-change of caspase 3/7 activation ([4]; HepG2, compound concentration 20000 nM): 0.280 | IC50 [5]: 72.9 µM | % reduction of MYC protein [6]: 67%
